Reference: patent US9629830B2, “EphA4 inhibitors as neuroprotective agents” (The Hong Kong University of Science and Technology, priority 2013, dated 2017)
Entries after “also recorded” stand apart in the source; their conditions may differ. Read-outs that look alike come from different tables or passages of the source.

Legend:
[1] = molecular target: T1, extracellular domain of EphA4 (Homo sapiens, UniProt P54764); assay: In vitro pull-down of recombinant EphA4-Fc with biotinylated Rhy on streptavidin beads; assay type: binding; conditions: western blot
T1 construct: purchased R&D Systems
T1 sequence (P54764 20-547 limits assumed): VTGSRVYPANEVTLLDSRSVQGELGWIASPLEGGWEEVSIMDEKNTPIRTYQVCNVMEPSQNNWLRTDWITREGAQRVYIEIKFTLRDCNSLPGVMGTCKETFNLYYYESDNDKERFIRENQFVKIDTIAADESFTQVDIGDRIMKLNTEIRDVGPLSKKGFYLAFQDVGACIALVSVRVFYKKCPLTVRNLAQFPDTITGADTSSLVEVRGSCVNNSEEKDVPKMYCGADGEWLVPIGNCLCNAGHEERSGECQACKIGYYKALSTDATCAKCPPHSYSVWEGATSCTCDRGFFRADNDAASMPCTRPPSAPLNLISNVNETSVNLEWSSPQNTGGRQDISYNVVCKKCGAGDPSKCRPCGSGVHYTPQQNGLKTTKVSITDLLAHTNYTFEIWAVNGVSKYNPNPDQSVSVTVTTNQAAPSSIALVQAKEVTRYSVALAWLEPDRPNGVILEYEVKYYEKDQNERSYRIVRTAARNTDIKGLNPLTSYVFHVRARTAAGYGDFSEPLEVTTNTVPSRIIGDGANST
Method: For the pull-down analysis, Bio-Rhy was bound to streptavidin magnetic beads for 1 h, the beads was then incubated with recombinant EphA4-Fc or EphB2-Fc in the presence of 0.5% BSA for 1 h. After incubation, the beads were washed 4 times with DPBS and the presence of Eph in the complex was determined by western blot analysis.

EphA4 (HT-22 cells) = molecular target: T2, EphA4 (HT-22 cells) (Mus musculus, UniProt Q03137); assay: Cell-based binding of biotinylated ephrin-A1 to the surface of HT-22 cells; conditions: 10 min pre-incubation; Rhy 300 μM, KYL 100 μM (FIG. 10); biotinylated ephrin-A1 0.5 μg/mL
T2 construct: HT-22 cells, a cell line that expresses EphA4; endogenous in cells; host or cells: HT-22 cells
T2 sequence (Q03137 20-986): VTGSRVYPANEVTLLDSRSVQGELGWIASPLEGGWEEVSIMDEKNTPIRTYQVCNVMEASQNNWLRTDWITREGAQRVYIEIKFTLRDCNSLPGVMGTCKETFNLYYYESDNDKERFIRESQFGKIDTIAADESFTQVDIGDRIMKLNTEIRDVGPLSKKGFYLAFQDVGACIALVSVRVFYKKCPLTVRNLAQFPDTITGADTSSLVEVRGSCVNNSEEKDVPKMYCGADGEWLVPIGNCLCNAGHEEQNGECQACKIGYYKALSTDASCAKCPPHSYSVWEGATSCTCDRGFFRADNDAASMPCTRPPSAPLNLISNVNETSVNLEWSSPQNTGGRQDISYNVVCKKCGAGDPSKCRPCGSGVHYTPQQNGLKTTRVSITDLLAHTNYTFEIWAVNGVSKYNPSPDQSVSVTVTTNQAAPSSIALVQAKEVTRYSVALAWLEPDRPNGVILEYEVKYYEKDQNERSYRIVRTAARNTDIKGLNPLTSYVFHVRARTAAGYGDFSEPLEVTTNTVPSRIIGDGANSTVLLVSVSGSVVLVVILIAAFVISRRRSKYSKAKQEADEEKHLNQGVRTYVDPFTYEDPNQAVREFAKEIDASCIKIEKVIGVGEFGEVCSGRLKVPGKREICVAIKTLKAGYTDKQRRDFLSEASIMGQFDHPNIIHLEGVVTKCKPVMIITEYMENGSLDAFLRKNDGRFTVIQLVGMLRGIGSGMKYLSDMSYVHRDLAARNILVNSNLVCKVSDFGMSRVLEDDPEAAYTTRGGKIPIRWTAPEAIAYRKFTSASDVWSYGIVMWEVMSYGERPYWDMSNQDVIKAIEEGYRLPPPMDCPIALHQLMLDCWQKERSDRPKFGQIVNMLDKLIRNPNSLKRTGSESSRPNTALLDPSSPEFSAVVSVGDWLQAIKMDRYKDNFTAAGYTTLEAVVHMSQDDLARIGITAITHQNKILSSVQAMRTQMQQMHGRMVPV
Method: HT-22 cells were seeded on poly-D-lysine coverslips. […] The cells were then fixed with 4% paraformaldehyde and then immunostained with Alexa Fluor 488-conjugated Streptavidin antibody (Molecular Probes) for surfacing labeling of biotinylated ephrin-A1.

EphA4 = molecular target: T3, EphA4 (Rattus norvegicus, UniProt D3ZZK3); assay: Ephrin-A1-induced EphA4 cluster assay in cultured hippocampal neurons; assay type: cell-based; conditions: cultured hippocampal neurons 3 DIV, different concentrations
T3 construct: endogenous in cells; host or cells: primary rat cortical neurons (A5), primary rat hippocampal neurons (A7)
T3 sequence (D3ZZK3 20-986): as the sequence (Q03137 20-986) above, with S270T, K559Q, S874P counted along it
Method: For EphA4 clustering, neurons were stained with anti-EphA4 and anti-Tau-1 antibodies. For the growth cone collapse assay, neurons were stained with Alexa Fluor 555-conjugated phalloidin (Molecular Probes) for filamentous actin and anti-Tau-1 antibody for axons. Collapsed growth cones were scored in a double-blinded manner. The experiments were repeated at least 3 times, and >50 neurons were analyzed for each experiment. Data are presented as mean±SEM.
Rat hippocampal neurons were seeded on 48-well plates coated with poly-D-lysine (50 μg/mL) at 6000 cells per well. Neurons were incubated with Neurobasal medium (Invitrogen) supplemented with 2% B27 (Invitrogen). […] Neurons were then immunostained with anti-EphA4 and anti-Tau-1 antibodies. The cellular imaging and quantification of EphA4 clusters was performed using IN Cell Analyzer 6000 high content assay system (GE Healthcare). EphA4 clusters were quantified by calculating the proportion of total area of EphA4 clusters on axons against Tau positive area. Statistical analysis was performed with one-way ANOVA followed by Newman-Keuls Multiple Comparison Test (Prism 5 GraphPad Software).

[2] = Blood and brain penetration assay after single oral administration; assay type: in vivo, mouse; conditions: for half-life: C57Bl/6, mouse, po, 50 mg/kg
Method: Five microliters of sample was injected and eluted by the following program at the flow rate of 0.6 ml/min: 0-4.0 min, 10˜35% ACN; 4.0-4.1 min, 100% ACN; 7.0-7.1 min, 100-10% ACN, 7.1-10 min, 10% ACN. Detection of Rhy was carried out with the positive ionization mode. The ESI conditions were as follows: declustering potential 120 V, entrance potential 10 V, collision cell exit potential 12 V, collision energies 38 V, curtain gas 50 (arbitrary units), collision gas 10 (arbitrary units), ion spray voltage […], source temperature 500° C., ion source gas 1:45 (arbitrary units), ion source gas 2:60 (arbitrary units).
Male C57Bl/6 mice (16-week-old) were obtained from the Hong Kong University of Science and Technology (HKUST) Animal Care Facility and acclimatized in the laboratory a week before the study. […] The procedures in this study were approved by HKUST Animal Ethics Committee and conducted in accordance with the Code of Practice and Use of Animals for Experimental Purpose.
Plasma was obtained by centrifuging the blood at 3,800×g at 4° C. for 10 min. Mouse brains were collected after a 30-min cardiac perfusion with 0.9% saline. Whole mouse brain with the addition of 80 μL 0.9% saline was subjected to homogenization for 10 s (Precellys Minilys) at 4000 rpm with ceramic beads. […] Samples were centrifuged at 12,000×g at 4° C. for 10 min. The supernatants were transferred to a new tube and the remaining samples were subjected to another extraction. The supernatants obtained from the two extractions were pooled and evaporated to dryness. The dried samples were dissolved in 0.3 mL methanol, vortexed for 30 s followed by ultrasonication for 5 min and centrifuged at 17,900×g for 5 min. The supernatant (80 μL) was transferred into vial for UPLC-MS/MS analysis.

APP/PS1 mice = assay: Adult neurogenesis (Ki67 staining) in hippocampus of APP/PS1 mice; assay type: in vivo, mouse; conditions: Rhy oral 50 mg/kg for over three months, versus control-treated mice
Source text: The mouse brains were sectioned and stained with Ki67 antibody, which labelled all cells in the cell cycle, but not those differentiated progenitors and newly born neurons.

[3] = test system: glutamate-induced Ca2+ influx; conditions: subsequent study; cited from earlier work
[4] = mouse, single oral 50 mg/kg, rounded

SMILES: CC[C@H]1CN2CC[C@]3(C(=O)Nc4ccccc43)[C@@H]2C[C@@H]1/C(=C\OC)C(=O)OC [Rhy, methyl (7β,16E,20α)-16-(methoxymethylene)-2-oxocorynoxan-17-oate]
- binding to the extracellular domain of EphA4 (pull-down, words) [1]: binds the extracellular domain of EphA4
- binding of ephrin-A1 to HT-22 cells (EphA4 (HT-22 cells)): reduced the binding of ephrin-A1 to HT-22 cells; also recorded: reduces the binding of ephrin-A1 to the surface of HT22 cells
- ephrin-A1-induced EphA4 clustering (EphA4): reduced the ephrin-A1-induced EphA4 clustering; also recorded: abolished ephrin-A1-induced EphA4 clustering
- detection in plasma and brain ([2]; 10 min after single oral 50 mg/kg): readily detected
- level of Rhy as percentage of Cmax ([2]; after 3 h of administration, in both plasma and brain): 10%
- half-life ([2]; male, brain, mouse, single oral 50 mg/kg, perfused brain, read-out: t1/2 in brain (converted)): 1.79 ± 0.455 h
- half-life ([2]; male, brain, mouse, single oral 50 mg/kg, rounded, read-out: t1/2 in brain (converted)): ~2 h
- half-life ([2]; male, plasma, mouse, single oral 50 mg/kg, read-out: t1/2 in plasma): 1.35 ± 0.201 h
- Cmax ([2]; male, C57Bl/6, plasma, mouse, single oral 50 mg/kg): 583 ± 32.9 ng/mL
- Tmax ([2]; male, C57Bl/6, plasma, mouse, single oral 50 mg/kg, read-out: Tmax in plasma (converted)): 0.514 h
- Tmax ([2]; male, C57Bl/6, mouse, single oral 50 mg/kg, perfused brain, read-out: Tmax in brain (converted)): 0.917 h
- blood-brain barrier passage ([2]; mouse, oral administration): can pass through the blood-brain barrier
- Cmax in brain ([2]; mouse, single oral 50 mg/kg, perfused brain): 442.73±27.38 ng/brain
- time at which brain level peaked [2, 4]: ~1 h
- time at which plasma concentration peaked [2, 4]: ~0.5 h
- time at which plasma concentration was reduced by 50% [2, 4]: ~1.5 h
- number of Ki-67+ neural progenitors in dentate gyrus (APP/PS1 mice): increased the number of Ki-67+ neural progenitors
- inhibition of glutamate-induced Ca2+ influx [3]: nor inhibits the glutamate-induced Ca^2+ influx
